# Patent US7964624B1, “Inhibitors of serine proteases” (priority 2005, dated 2011)
# Target: T1, full-length hepatitis C viral protein NS3•4A (Hepatitis C virus genotype 1a, UniProt P27958)
# T1 construct: hexa-histidine (N); made in house; host or cells: Sf9 insect cells (baculovirus, pVL1392)
# Test: biochemical
# Design: species or system HCV sub-type strain 1a
# Conditions: Enzyme Assay 2 (HCV NS3 Peptide Cleavage Assay) activity, apparent Ki class
row,Structure (SMILES),Ki [nM]
1,CNC(=O)C(=O)[C@H](CC1CC1)NC(=O)[C@@H]1C[C@]2(CC(c3cccc(Cl)c3)=NO2)CN1C(=O)[C@@H](NC(=O)CC1CCCCC1)C1(OC)CC1 [Compound 617],100 to 500
2,CCC[C@H](NC(=O)[C@@H]1C[C@]2(CC(c3cc(Cl)c(OC)cc3OC)=NO2)CN1C(=O)[C@@H](NC(=O)CC1(C)CCOCC1)C(C)(C)C)C(=O)C(=O)N1CCC1 [Compound 356],< 100
3,COc1cc(OC)c(C2=NO[C@]3(C2)C[C@@H](C(=O)N[C@@H](CC2CC2)C(=O)C(N)=O)N(C(=O)[C@@H](NC(=O)OC(C)(C)C)C(C)(C)C)C3)cc1Cl [Compound 264],< 100
4,CCC[C@H](NC(=O)[C@@H]1C[C@]2(CC(c3ccc(F)c(Cl)c3)=NO2)CN1C(=O)[C@@H](NC(=O)CC1CCCCC1)C(C)(C)C)C(=O)C(N)=O [Compound 621],< 100
5,CCC[C@H](NC(=O)[C@@H]1C[C@]2(CC(c3cccc4cccnc34)=NO2)CN1C(=O)[C@@H](NC(=O)OC1CCCC1)C(C)(C)C)C(=O)C(=O)NC [Compound 647],100 to 500
6,CNC(=O)C(=O)[C@H](CC1CC1)NC(=O)[C@@H]1C[C@]2(CC(c3cc(Cl)c4c(c3)OCCO4)=NO2)CN1C(=O)[C@@H](NC(=O)CC1CCCCC1)C(C)(C)C [Compound 675],< 100
7,CCC[C@H](NC(=O)[C@@H]1C[C@]2(CC(c3cc(Cl)cc(C)c3OC)=NO2)CN1C(=O)[C@@H](NC(=O)CC1CCCCC1)C(C)(C)C)C(=O)C(=O)NC1CC1 [Compound 643],< 100
8,CCC[C@H](NC(=O)[C@@H]1C[C@]2(CC(c3cccc(Cl)c3)=NO2)CN1C(=O)[C@@H](NC(=O)OC1CCCC1)C(C)(C)C)C(=O)C(=O)NC1CC1 [Compound 369],< 100
9,CCC[C@H](NC(=O)[C@@H]1C[C@]2(CC(c3ccc(N(C)C)c(Cl)c3)=NO2)CN1C(=O)[C@@H](NC(=O)CC1CCCCC1)C(C)(C)C)C(=O)C(=O)NC1CC1 [Compound 597],100 to 500
10,CCC[C@H](NC(=O)[C@@H]1C[C@]2(CC(c3cccc4cccnc34)=NO2)CN1C(=O)[C@@H](NC(=O)OC1CCCC1)C(C)(C)C)C(=O)C(=O)NC1CC1 [Compound 648],100 to 500
11,CCC[C@H](NC(=O)[C@@H]1C[C@]2(CC(c3ccc(F)c(Cl)c3)=NO2)CN1C(=O)[C@@H](NC(=O)CC1CCCCCC1)C(C)(C)C)C(=O)C(=O)NC1CC1 [Compound 611],< 100
12,CCC[C@H](NC(=O)[C@@H]1C[C@]2(CC(c3cc(Cl)c(OC)cc3C)=NO2)CN1C(=O)[C@@H](NC(=O)OC1CCCC1)C(C)(C)C)C(=O)C(=O)NC [Compound 650],100 to 500
13,CCC[C@H](NC(=O)[C@@H]1C[C@]2(CC(c3cc(C)c(OC)cc3C)=NO2)CN1C(=O)[C@@H](NC(=O)CC1CCCCC1)C(C)(C)C)C(=O)C(=O)NC1CC1 [Compound 615],100 to 500
14,CCC[C@H](NC(=O)[C@@H]1C[C@]2(CC(c3cc(Cl)cc4c3OC(C)(C)C4)=NO2)CN1C(=O)[C@@H](NC(=O)CC1CCCCC1)C(C)(C)C)C(=O)C(=O)NC1CC1 [Compound 170],< 100
15,CCC[C@H](NC(=O)[C@@H]1C[C@]2(CC(c3cc(C)c(OC)c(C)c3)=NO2)CN1C(=O)[C@@H](NC(=O)CC(C)(C)C)C(C)(C)C)C(=O)C(N)=O [Compound 733],< 100
16,COc1c(C)cc(C2=NO[C@]3(C2)C[C@@H](C(=O)N[C@@H](CC2CC2)C(=O)C(N)=O)N(C(=O)[C@@H](NC(=O)CC2CCCCCC2)C(C)(C)C)C3)cc1C [Compound 730],< 100
17,CCC[C@H](NC(=O)[C@@H]1C[C@]2(CC(c3cc(Cl)ccc3OC)=NO2)CN1C(=O)[C@@H](NC(=O)OC1CCCC1)C(C)(C)C)C(=O)C(=O)NC1CC1 [Compound 686],< 100
18,CC(C)(C)[C@H](NC(=O)CC1CCCCCC1)C(=O)N1C[C@@]2(CC(c3cccc4cccnc34)=NO2)C[C@H]1C(=O)N[C@@H](CC1CC1)C(=O)C(N)=O [Compound 602],< 100
19,COc1cc(OC)c(C2=NO[C@]3(C2)C[C@@H](C(=O)N[C@@H](CC2CC2)C(=O)C(=O)NC2CC2)N(C(=O)[C@@H](NC(=O)OC(C)(C)C)C(C)(C)C)C3)cc1Cl [Compound 745],< 100
20,CCC[C@H](NC(=O)[C@@H]1C[C@]2(CC(c3cc(Cl)c(OC)cc3C)=NO2)CN1C(=O)[C@@H](NC(=O)CC1CCCCC1)C(C)(C)C)C(=O)C(N)=O [Compound 620],< 100
21,CCC[C@H](NC(=O)[C@@H]1C[C@]2(CC(c3cc(Cl)c(OC)cc3C)=NO2)CN1C(=O)[C@@H](NC(=O)OC1CCCC1)C(C)(C)C)C(=O)C(=O)NC1CC1 [Compound 666],< 100
22,CCC[C@H](NC(=O)[C@@H]1C[C@]2(CC(c3ccc(F)c(Cl)c3)=NO2)CN1C(=O)[C@@H](NC(=O)OC1CCCC1)C(C)(C)C)C(=O)C(N)=O [Compound 654],< 100
23,CCC[C@H](NC(=O)[C@@H]1C[C@]2(CC(c3cccc(Cl)c3)=NO2)CN1C(=O)[C@@H](NC(=O)CC1CCCCC1)C(C)(C)C)C(=O)C(=O)N1CC(OC[C@H]2CCCO2)C1 [Compound 238],> 500
24,CCC[C@H](NC(=O)[C@@H]1C[C@]2(CC(c3cccc(Cl)c3)=NO2)CN1C(=O)[C@@H](NC(=O)OC1CCCCCC1)C(C)(C)C)C(=O)C(=O)NC1CC1 [Compound 706],< 100
25,CCC[C@H](NC(=O)[C@@H]1C[C@]2(CC(c3cc(Cl)c(OC)cc3C)=NO2)CN1C(=O)[C@@H](NC(=O)OC(C)(C)C)C(C)(C)C)C(=O)C(=O)NC [Compound 630],100 to 500
26,CCC[C@H](NC(=O)[C@@H]1C[C@]2(CC(c3cccc4cccnc34)=NO2)CN1C(=O)[C@@H](NC(=O)CC1CCCCCC1)C(C)(C)C)C(=O)C(=O)NC [Compound 596],100 to 500
27,CCC[C@H](NC(=O)[C@@H]1C[C@]2(CC(c3cc(Cl)c(OC)cc3OC)=NO2)CN1C(=O)[C@@H](NC(=O)OC(C)(C)C)C(C)(C)C)C(=O)C(=O)N1CCC1 [Compound 581],< 100
28,CNC(=O)C(=O)[C@H](CC1CC1)NC(=O)[C@@H]1C[C@]2(CC(c3cc(Cl)c(OC)cc3OC)=NO2)CN1C(=O)[C@@H](NC(=O)CC1CCCCC1)C(C)(C)C [Compound 657],< 100
29,CCC[C@H](NC(=O)[C@@H]1C[C@]2(CC(c3cccc4cccnc34)=NO2)CN1C(=O)[C@@H](NC(=O)OC(C)(C)C)C(C)(C)C)C(=O)C(=O)NC [Compound 644],100 to 500
30,CCC[C@H](NC(=O)[C@@H]1C[C@]2(CC(c3cccc(Cl)c3)=NO2)CN1C(=O)[C@@H](NC(=O)CC1CCCCC1)C(C)(C)C)C(=O)C(=O)N1CC(OCC2CCOC2)C1 (stereo partly shown) [Compound 49],< 100

# Same assay, conditions: Enzyme Assay 2, HCV NS3 Peptide Cleavage Assay, apparent Ki
row,Structure (SMILES),Ki [nM]
1,CCOc1cc(OC)c(C2=NO[C@]3(C2)C[C@@H](C(=O)N[C@@H](CC2CC2)C(=O)C(=O)NC)N(C(=O)[C@@H](NC(=O)OC(C)(C)C)C(C)(C)C)C3)cc1Cl [Compound 942],< 100
2,CNC(=O)C(=O)[C@H](CC1CC1)NC(=O)[C@@H]1C[C@]2(CC(c3cc(C)c(OC)c(C)c3)=NO2)CN1C(=O)[C@@H](NC(=O)[C@@H]1CC1c1ccccc1)C(C)(C)C (stereo partly shown) [Compound 798],< 100
3,CCC[C@H](NC(=O)[C@@H]1C[C@]2(CC(c3cccc(Cl)c3)=NO2)CN1C(=O)[C@@H](NC(=O)[C@H]1C[C@@H]1C1CCCCC1)C(C)(C)C)C(=O)C(N)=O [Compound 932],< 100
4,CNC(=O)C(=O)[C@H](CC1CC1)NC(=O)[C@@H]1C[C@]2(CC(c3cccc(Cl)c3)=NO2)CN1C(=O)[C@@H](NC(=O)[C@@H]1C[C@H]1c1cccnc1)C(C)(C)C [Compound 885],100 to 500
5,CCC[C@H](NC(=O)[C@@H]1C[C@]2(CC(c3cc(C)c(OC)cc3OC)=NO2)CN1C(=O)[C@@H](NC(=O)[C@@H]1C[C@H]1c1ccccc1)C(C)(C)C)C(=O)C(=O)NC1CC1 [Compound 875],< 100
6,CCNC(=O)C(=O)[C@H](CC1CC1)NC(=O)[C@@H]1C[C@]2(CC(c3cc(Cl)c(OC)cc3OC)=NO2)CN1C(=O)[C@@H](NC(=O)C1CC1)C(C)(C)C [Compound 896],< 100
7,CCOc1c(C)cc(C2=NO[C@]3(C2)C[C@@H](C(=O)N[C@@H](CC2CC2)C(=O)C(=O)NC)N(C(=O)[C@@H](NC(=O)[C@@H]2C[C@H]2c2ccccc2OC)C(C)(C)C)C3)cc1C [Compound 985],< 100
8,CNC(=O)C(=O)[C@H](CC1CC1)NC(=O)[C@@H]1C[C@]2(CC(c3cccc(Cl)c3)=NO2)CN1C(=O)[C@@H](NC(=O)[C@@H]1C[C@H]1c1ccccn1)C(C)(C)C [Compound 869],< 100
9,CCC[C@H](NC(=O)[C@@H]1C[C@]2(CC(c3cc(C)c(OCC)c(C)c3)=NO2)CN1C(=O)[C@@H](NC(=O)C1CC1c1ccncc1)C(C)(C)C)C(=O)C(=O)NC1CC1 (stereo partly shown) [Compound 982],100 to 500
10,CCC[C@H](NC(=O)[C@@H]1C[C@]2(CC(c3cc(C)c(OCC)c(C)c3)=NO2)CN1C(=O)[C@@H](NC(=O)[C@@H]1C[C@H]1C1CCCCC1)C(C)(C)C)C(=O)C(=O)NC1CC1 [Compound 984],< 100
11,CNC(=O)C(=O)[C@H](CC1CC1)NC(=O)[C@@H]1C[C@]2(CC(c3cc(Cl)ccc3OC)=NO2)CN1C(=O)[C@@H](NC(=O)[C@H]1C[C@@H]1c1ccccc1)C(C)(C)C [Compound 903],< 100
12,CCNC(=O)C(=O)[C@H](CC1CC1)NC(=O)[C@@H]1C[C@]2(CC(c3cc(C)c(OC)c(C)c3)=NO2)CN1C(=O)[C@@H](NC(=O)[C@@H]1CC1c1ccccc1)C(C)(C)C (stereo partly shown) [Compound 845],< 100
13,CCC[C@H](NC(=O)[C@@H]1C[C@]2(CC(c3cc(Cl)ccc3N(C)C)=NO2)CN1C(=O)[C@@H](NC(=O)CC1CCCCC1)C(C)(C)C)C(=O)C(=O)NC1CC1 [Compound 803],100 to 500
14,CCC[C@H](NC(=O)[C@@H]1C[C@]2(CC(c3cc(Cl)ccc3OC)=NO2)CN1C(=O)[C@@H](NC(=O)[C@@H]1C[C@H]1c1ccccc1)C(C)(C)C)C(=O)C(=O)NC [Compound 969],< 100
15,CCC[C@H](NC(=O)[C@@H]1C[C@]2(CC(c3cc(C)c(OCC)c(C)c3)=NO2)CN1C(=O)[C@@H](NC(=O)[C@@H]1C[C@H]1c1ccccn1)C(C)(C)C)C(=O)C(=O)NC1CC1 [Compound 981],< 100

# Same assay, conditions: read-out: Enzyme Assay 2 (HCV NS3 Peptide Cleavage Assay) activity; apparent Ki class
row,Structure (SMILES),Ki [nM]
1,CNC(=O)C(=O)[C@H](CC1CC1)NC(=O)[C@@H]1C[C@]2(CC(c3cccc(Cl)c3)=NO2)CN1C(=O)[C@@H](NC(=O)CC1CC2CCC1C2)C(C)(C)C (stereo partly shown) [Compound 777],< 100
